Laboratory results: ChEMBL document CHEMBL1146722, “Synthesis and antibacterial activity of 6-O-arylpropargyl-9-oxime-11,12-carbamate ketolides” (2004)
Converted amounts (≈) assume the structure as drawn.

What was measured:
Type in all cases: functional
Haemophilus influenzae = assay: In vitro antibacterial activity against Haemophilus influenzae GYR1435
Staphylococcus aureus [1] = assay: In vitro antibacterial activity against Staphylococcus aureus 1775 strain
Staphylococcus aureus [2] = assay: In vitro antibacterial activity against Staphylococcus aureus NCTC 10649M strain
Streptococcus pneumoniae [3] = assay: In vitro antibacterial activity against Streptococcus pneumoniae 5649
Streptococcus pneumoniae [4] = assay: In vitro antibacterial activity against Streptococcus pneumoniae 5979
Streptococcus pyogenes [5] = assay: In vitro antibacterial activity against Streptococcus pyogenes 930
Streptococcus pyogenes [6] = assay: In vitro antibacterial activity against Streptococcus pyogenes EES61
Streptococcus pyogenes [7] = assay: In vitro antibacterial activity against Streptococcus pyogenes PIU 2548
Staphylococcus aureus [8] = assay: In vitro antibacterial activity against Staphylococcus aureus A5177 strain
Streptococcus pneumoniae [9] = assay: In vitro antibacterial activity against Streptococcus pneumoniae ATCC 6303

| Compound | MIC (Haemophilus influenzae) [µg/mL] | MIC (Staphylococcus aureus [1]) [µg/mL] | MIC (Staphylococcus aureus [2]) [µg/mL] | MIC (Streptococcus pneumoniae [3]) [µg/mL] | MIC (Streptococcus pneumoniae [4]) [µg/mL] | MIC (Streptococcus pyogenes [5]) [µg/mL] | MIC (Streptococcus pyogenes [6]) [µg/mL] | MIC (Streptococcus pyogenes [7]) [µg/mL] | MIC (Staphylococcus aureus [8]) [µg/mL] | MIC (Streptococcus pneumoniae [9]) [µg/mL] |
| --- | --- | --- | --- | --- | --- | --- | --- | --- | --- | --- |
| CC[C@H]1OC(=O)[C@H](C)C(=O)[C@H](C)[C@@H](OC2O[C@H](C)C[C@H](N(C)C)[C@H]2O)[C@@](C)(OCC#Cc2cnc3cccnc3c2)C[C@@H](C)/C(=N\OC)[C@H](C)[C@H]2NC(=O)O[C@@]21C (stereo not given in full) | 2 (≈ 2.52 µM) | > 128 | 1 (≈ 1.26 µM) | 0.03 (≈ 0.0378 µM) | 1 (≈ 1.26 µM) | 0.5 (≈ 0.63 µM) | 0.008 (≈ 0.0101 µM) | 0.06 (≈ 0.0756 µM) | 0.008 (≈ 0.0101 µM) | 0.008 (≈ 0.0101 µM) |
| CC[C@H]1OC(=O)[C@H](C)[C@@H](O[C@H]2C[C@@](C)(OC)[C@@H](O)[C@H](C)O2)[C@H](C)[C@@H](O[C@@H]2O[C@H](C)C[C@H](N(C)C)[C@H]2O)[C@](C)(O)C[C@@H](C)C(=O)[C@H](C)[C@@H](O)[C@]1(C)O [ERYTHROMYCIN] | 4 (≈ 5.45 µM) | > 128 | 0.5 (≈ 0.681 µM) | 4 (≈ 5.45 µM) | > 128 | > 128 | 0.015 (≈ 0.0204 µM) | 8 (≈ 10.9 µM) | > 128 | 0.015 (≈ 0.0204 µM) |
| CC[C@H]1OC(=O)[C@H](C)C(=O)[C@H](C)[C@@H](O[C@@H]2O[C@H](C)C[C@H](N(C)C)[C@H]2O)[C@](C)(OC)C[C@@H](C)C(=O)[C@H](C)[C@H]2N(CCCCn3cnc(-c4cccnc4)c3)C(=O)O[C@]12C [TELITHROMYCIN] | 2 (≈ 2.46 µM) | > 100 | 0.1 (≈ 0.123 µM) | 0.5 (≈ 0.616 µM) | 8 (≈ 9.85 µM) | 8 (≈ 9.85 µM) | 0.004 (≈ 0.00493 µM) | 2 (≈ 2.46 µM) | 0.1 (≈ 0.123 µM) | 0.004 (≈ 0.00493 µM) |
| CC[C@H]1OC(=O)[C@H](C)C(=O)[C@H](C)[C@@H](OC2O[C@H](C)C[C@H](N(C)C)[C@H]2O)[C@@](C)(OCC#Cc2ccc(-c3ccccn3)s2)C[C@@H](C)/C(=N\OC)[C@H](C)[C@H]2NC(=O)O[C@@]21C (stereo not given in full) | 4 (≈ 4.85 µM) | 64 (≈ 77.6 µM) | 0.25 (≈ 0.303 µM) | 0.008 (≈ 0.0097 µM) | 0.008 (≈ 0.0097 µM) | 16 (≈ 19.4 µM) | 0.008 (≈ 0.0097 µM) | 0.03 (≈ 0.0364 µM) | 0.008 (≈ 0.0097 µM) | 0.008 (≈ 0.0097 µM) |
| CC[C@H]1OC(=O)[C@H](C)C(=O)[C@H](C)[C@@H](OC2O[C@H](C)C[C@H](N(C)C)[C@H]2O)[C@@](C)(OCC#Cc2cnc3ccccc3c2)C[C@@H](C)/C(=N\OC)[C@H](C)[C@H]2NC(=O)O[C@@]21C (stereo not given in full) | 4 (≈ 5.04 µM) | 128 (≈ 161 µM) | 1 (≈ 1.26 µM) | 0.125 (≈ 0.158 µM) | 0.25 (≈ 0.315 µM) | 1 (≈ 1.26 µM) | 0.008 (≈ 0.0101 µM) | 0.125 (≈ 0.158 µM) | 0.25 (≈ 0.315 µM) | 0.008 (≈ 0.0101 µM) |
| CC[C@H]1OC(=O)[C@H](C)C(=O)[C@H](C)[C@@H](OC2O[C@H](C)C[C@H](N(C)C)[C@H]2O)[C@@](C)(OCC#Cc2ccc3nccnc3c2)C[C@@H](C)/C(=N\OC)[C@H](C)[C@H]2NC(=O)O[C@@]21C (stereo not given in full) | 8 (≈ 10.1 µM) | > 128 | 0.25 (≈ 0.315 µM) | 0.125 (≈ 0.157 µM) | 0.25 (≈ 0.315 µM) | 8 (≈ 10.1 µM) | 0.008 (≈ 0.0101 µM) | 0.5 (≈ 0.63 µM) | 0.008 (≈ 0.0101 µM) | 0.008 (≈ 0.0101 µM) |
| CC[C@H]1OC(=O)[C@H](C)C(=O)[C@H](C)[C@@H](OC2O[C@H](C)C[C@H](N(C)C)[C@H]2O)[C@@](C)(OCC#Cc2ccc(-c3nnn(C)n3)s2)C[C@@H](C)/C(=N\OC)[C@H](C)[C@H]2NC(=O)O[C@@]21C (stereo not given in full) | 4 (≈ 4.82 µM) | 128 (≈ 154 µM) | 0.25 (≈ 0.301 µM) | 0.06 (≈ 0.0723 µM) | 0.5 (≈ 0.602 µM) | 32 (≈ 38.6 µM) | 0.008 (≈ 0.00964 µM) | 0.125 (≈ 0.151 µM) | 0.008 (≈ 0.00964 µM) | 0.008 (≈ 0.00964 µM) |
| CC[C@H]1OC(=O)[C@@](C)(F)C(=O)[C@H](C)[C@@H](OC2O[C@H](C)C[C@H](N(C)C)[C@H]2O)[C@@](C)(OCC#Cc2cnc3ccccc3c2)C[C@@H](C)/C(=N\OC)[C@H](C)[C@H]2NC(=O)O[C@@]21C (stereo not given in full) | 4 (≈ 4.93 µM) | 64 (≈ 78.9 µM) | 0.5 (≈ 0.617 µM) | 0.125 (≈ 0.154 µM) | 0.125 (≈ 0.154 µM) | 0.5 (≈ 0.617 µM) | 0.008 (≈ 0.00986 µM) | 0.25 (≈ 0.308 µM) | 0.25 (≈ 0.308 µM) | 0.008 (≈ 0.00986 µM) |
| CC[C@H]1OC(=O)[C@@](C)(F)C(=O)[C@H](C)[C@@H](OC2O[C@H](C)C[C@H](N(C)C)[C@H]2O)[C@@](C)(OCC#Cc2ccc(-c3nnn(C)n3)s2)C[C@@H](C)/C(=N\OC)[C@H](C)[C@H]2NC(=O)O[C@@]21C (stereo not given in full) | 8 (≈ 9.43 µM) | 64 (≈ 75.5 µM) | 1 (≈ 1.18 µM) | 0.125 (≈ 0.147 µM) | 0.25 (≈ 0.295 µM) | 8 (≈ 9.43 µM) | 0.008 (≈ 0.00943 µM) | 0.5 (≈ 0.59 µM) | 0.25 (≈ 0.295 µM) | 0.008 (≈ 0.00943 µM) |
